Experimental data published in PubChem BioAssay AID743394 (Broad Institute, 2014).
“And” between values parts separate entries of the source, which are not always exact repeats. Identical values can stand only once. The source made the active and inactive calls.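 How the source made its calls: active means 40% activation versus positive control reached by fitted dose-response curve at or below highest valid tested dose; inconclusive means poor fit quality, or flat fit with activation between 30% and 70%; inactive means the rest.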

System: 68-5-11 mouse fibroblast XiGFP reporter, % GFP-positive imaging, 3 d
Test: inactive X chromosome reactivation in XiGFP fibroblasts, dose response, imaging, 68-5-11 mouse fibroblasts, GFP, cherry-pick (AID 743394);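 further: sensitizer 5-aza-dC present in the wells at 0.5 mM final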
Conditions: not given

| SMILES | AC40 [µM] |
| --- | --- |
| CC1=CC(=Cc2sc3ccccc3[n+]2C)C=C(C)O1 | 7.67 |

Same assay, conditions: cells co-treated with 5-aza-dC sensitizer

| SMILES | AC40 |
| --- | --- |
| C=CCN1C(=O)[C@@H]2Cc3c([nH]c4ccccc34)C(c3cc(OC)c(OC)c(OC)c3)N2C1=S (stereo not given in full) | > 19.5 µM (inactive) |
| CCCN1C(=O)S/C(=C\c2ccc(N3CCOCC3)o2)C1=O | > 19.5 µM (inactive) |
| CC(=O)c1ccc(C(=O)Nc2sc3c(c2C(N)=O)CCN(Cc2ccccc2)C3)cc1 | > 19.5 µM (inactive) |
| COc1ccccc1-[n+]1c(C)cc(/C=C2\Sc3ccccc3N2C)cc1C | 0.249 µM |
| CCN1/C(=C/c2ccc3cc(C)ccc3[n+]2CC)Sc2cc(C)c(C)cc21 | 1.29 µM |
| Cc1cc(C)c2cc3c(N)c(C(=O)Nc4c(C)[nH]c(=O)[nH]c4=O)sc3nc2c1 | 19.3 µM |
| CCN1/C(=C/c2ccc3cc(C)ccc3[n+]2CC)Sc2cc(C)ccc21 | 2.16 µM |
| CCN(CC)c1ccc2cc(-c3nc(-c4ccc(OC)cc4)cs3)c(=O)oc2c1 | 0.057 µM |
| CCOCCCNC(=O)/C(C#N)=C/c1ccc([N+](=O)[O-])o1 | > 19.5 µM (inactive) |
| COc1ccc(NC(=O)Nc2ccc3c(c2)CC(=O)N([C@H](C)CO)C[C@H](C)[C@@H](CN(C)S(=O)(=O)c2ccc(F)cc2)O3)cc1 | 18.6 µM |
| CC(=O)[C@@]1(O)Cc2c(O)c3c(c(O)c2[C@H](O[C@H]2C[C@H](N)[C@H](O)[C@H](C)O2)C1)C(=O)c1ccccc1C3=O | 1.09 µM |
| COC1C(CO)OC(n2c3c(Cl)cccc3c3c4c(c5c6cccc(Cl)c6[nH]c5c32)C(=O)NC4=O)C(O)C1O (stereo not given) | 13.8 µM |
| COc1ccc(/C=C/C(=O)c2ccc([N+](=O)[O-])o2)cc1OC | 14.3 µM |
| CCOC(=O)/C(=C/C=C1\Sc2cc(C)c(C)cc2N1CC)C(C)=O | 16.9 µM |
| CN(C)CCN(Cc1ccc(Cl)cc1)c1ccccn1 | > 2.1 µM (inactive) |
| CCCN1CCN(C(=O)C2CCN(c3nnc(C)c4c(C)n(-c5ccc(C)cc5)nc34)CC2)CC1 | 8.7 µM |
| N#C/C(=C/c1ccc(-c2ccc(S(N)(=O)=O)cc2)o1)c1nc2ccccc2s1 | 1.17 µM |
| Cc1ccc(-c2cn3nc(-c4ccccc4)c(-c4ccccc4)nc3n2)cc1 | 7.27 µM |
| CN(C)S(=O)(=O)c1ccc2c(c1)/C(=C/c1cc3c([nH]1)CCCC3)C(=O)N2 | 1.58 µM |
| Cc1ccc(NC(=O)/C=C/c2ccc([N+](=O)[O-])s2)cc1 | 3.11 µM |
| Cn1cc(/C=C/c2cc[n+](C)cc2)c2cc(Cl)ccc21 | > 19.5 µM (inactive) |
| CCN(CC)c1ccc(/C=C/c2cc(-c3ccccc3)c3ccccc3n2)cc1 | 1.68 µM |
| Cc1ccc2[nH]c(C)c(/C=C/c3cc[n+](C)cc3)c2c1 | 8.58 µM |
| CC(=O)Oc1cccc(N2C(=O)c3cccc4c([N+](=O)[O-])ccc(c34)C2=O)c1 | 5.28 µM |
| COc1cc2c3nnc(-c4ccc(F)cc4)c-3cn(Cc3ccccc3F)c2cc1OC | 1.57 µM |

| SMILES | AC40 |
| --- | --- |
| COc1ccc(Cn2cc3c(-c4ccc(F)cc4)nnc-3c3cc(OC)c(OC)cc32)cc1 | 4.05 µM |
| CC(NC(=O)/C(C#N)=C/c1ccc([N+](=O)[O-])o1)c1ccccc1 (stereo not given) | 6.75 µM |
| CCC(CO)[n+]1c(C)cc(/C=C2\Sc3ccccc3N2Cc2ccccc2)cc1C (stereo not given) | 1.55 µM |
| CCN1CCc2c(sc(NC(=O)c3ccc(S(=O)(=O)N(CC)c4ccccc4)cc3)c2C(N)=O)C1 | > 19.5 µM (inactive) |
| N#C/C(=C/c1ccc(-c2ccccc2)o1)c1nc(-c2cccs2)cs1 | 5.05 µM |
| CCOC(=O)C1=C(O)/C(=C/c2cc(OC)c(O)c(OC)c2)SC1=Nc1ccc(OC)cc1 | 18.3 µM |
| O=CNc1ccc2c3c(cccc13)-c1ccccc1-2 | 5.85 µM |
| COc1ccc(NC(=O)CCc2ccccc2)cc1S(=O)(=O)N1CCCCC1 | 17 µM |
| O=[N+]([O-])c1ccc(N2N=C(c3ccccc3)CC2c2ccccc2O)cc1 (stereo not given) | 12.4 µM |
| Cc1nonc1NC(=O)CSc1nc2c(C)cccc2cc1C#N | 6.5 µM |
| CC1=NN(c2nc(N)nc(/C(C#N)=C/c3ccc([N+](=O)[O-])o3)n2)C(C)(C)C1 | 2.18 µM |
| C[n+]1c2cc(N)ccc2cc2ccc(N)cc21 | 0.297 µM and 0.116 µM |
| Cc1cc2oc3ccc(NCCCn4ccnc4)cc3c(=O)c2cc1C | 11.3 µM |
| CCN(CC)C1=CC2=CC(=C(C#N)C#N)CCC2CC1 (stereo not given) | 8.77 µM |
| O=c1oc2cc(O)ccc2cc1-c1nc2c(s1)CCc1ccccc1-2 | 2.79 µM |
| COc1ccc(C(=O)c2sc3nc(C)cc(-c4cccs4)c3c2N)cc1 | 7.57 µM |
| Nc1ccc2c3c(cccc13)-c1ccccc1-2 | 1.04 µM |
| CCN1C(=O)[C@@H]2Cc3c([nH]c4ccccc34)C(c3cc(OC)c(OC)c(OC)c3)N2C1=S (stereo not given in full) | > 19.5 µM (inactive) |
| CC(=O)Nc1sc(/C(C#N)=C/c2ccc(Cl)c(Cl)c2)nc1-c1ccc(C)cc1 | 1.92 µM |
| CCN1/C(=C/C=C/c2oc3ccc(-c4ccccc4)cc3[n+]2CC)Oc2ccc(-c3ccccc3)cc21 | 0.00228 µM |
| CC(C)(C)NC(=S)N/N=C\c1ccc(-c2ccc([N+](=O)[O-])cc2)o1 | 5.94 µM |
| O=C1c2cccc3c([N+](=O)[O-])ccc(c23)C(=O)N1Cc1cccnc1 | 10.1 µM |
| N#CC(C#N)=C1C=C2C=C(N3CCCCCC3)CCC2CC1 (stereo not given) | 4 µM |
| CCN1/C(=C\c2ccc3cc(C)ccc3[n+]2CC)Sc2cc(C)c(C)cc21 | 5.57 µM |
| COc1ccc(-[n+]2c(C)cc(/C=C3\Sc4ccccc4N3C)cc2C)cc1 | 0.22 µM |

| SMILES | AC40 |
| --- | --- |
| CCOC(=O)/C=c1\s/c(=C\c2ccc3cc(OC)ccc3c2)c(=O)n1CC(=O)NCc1ccc2c(c1)OCO2 | 7.15 µM |
| Cc1ccc(Cl)c2c(N=Nc3ccccc3)c(O)[nH]c12 | 7.83 µM |
| COc1ccc(NC(=O)C(C)N2C(=O)c3ccccc3C2=O)c(OC)c1 (stereo not given) | 9.06 µM |
| O=[N+]([O-])c1ccc(/C=C/C2=NN(c3ccccc3)C(c3ccco3)C2)cc1 (stereo not given) | 1.81 µM |
| COc1ccccc1N1N=C(c2ccc([N+](=O)[O-])cc2)CC1c1ccccc1 (stereo not given) | 18.4 µM |
| O=C(NC1CCCC1)c1cccc2c1C(=O)c1ccc(/C=C/c3ccccc3)cc1S2(=O)=O | 5.54 µM |
| O=S(=O)(Nc1cc(Sc2cccc3cccnc23)c(O)c2ccccc12)c1ccccc1 | > 19.5 µM (inactive) |
| COc1cc(/C=C/c2ccc3cccc(O)c3n2)c(Br)cc1O | 14 µM |
| N#C/C(=C/c1ccc(N2CCCCC2)o1)C(=O)NCCc1c[nH]c2ccccc12 | 4.77 µM |
| Cc1c2c(cc3c1[nH]c1ccccc13)C=NCC2 | 9.27 µM |
| NC(=O)c1c(NC(=O)c2ccccc2)sc2c1CCN(Cc1ccccc1)C2 | 15.8 µM |
| Nc1c(C(=O)c2cccs2)sc2nsc(SCCN3CCCCC3)c12 | 2.57 µM |
| Oc1ccc(/C=N/Nc2ccnc3cc(Cl)ccc23)c(O)c1 | > 19.5 µM (inactive) |
| O=[N+]([O-])c1ccc(N/N=C/c2ccc[nH]2)cc1 | > 19.5 µM (inactive) |
| CCc1cccc2cc3c(N)c(C(=O)Nc4ccc(S(=O)(=O)N5CCCC5)cc4)sc3nc12 | 4.01 µM |
| CCN1/C(=C/c2ccc3cc(C)ccc3[n+]2CC)Sc2ccccc21 | 0.228 µM |
| CN(C)c1ccc(/C=C(/C#N)C(=O)NCc2ccccc2)o1 | 10.3 µM |
| Cc1ccc2cc3c(N)c(C(=O)Nc4c(C)[nH]c(=O)[nH]c4=O)sc3nc2c1 | 13.2 µM |
| Cc1cccc2cc3c(N)c(C(=O)N4CCCc5ccccc54)sc3nc12 | 9.89 µM |
| CCN(CC)c1ccc2cc(C(=O)c3cccs3)c(=O)oc2c1 | 5.34 µM |
| Cc1ccc2c(c1)c(/C=C/c1cc[n+](C)cc1)c(C)n2C | 2.65 µM |
| N#C/C(=C/c1ccc(N2CCCCC2)o1)C(=O)Nc1ccc2ccccc2c1 | 0.297 µM |
| O=[N+]([O-])c1c(Nc2ccc(O)cc2)cc(Cl)c2nonc12 | 8.92 µM |
| Cc1cc(/C=C2\SC(=S)N(Cc3ccco3)C2=O)c(C)n1-c1ccccc1 | > 19.5 µM (inactive) |
